How the values were obtained:
SMN2 Protein = experiment: SMN Protein Assay (MSD); type: cell-based, human; conditions: SMA patient fibroblasts, 48 hours, 0.6 nM to 2.5 µM
Description: Spinal muscular atrophy (SMA) patient fibroblasts were plated in 96-well plates at 7,000 cells/well. Compounds were added in concentrations ranging from 0.6 nM to 2.5 µM, incubated for 48 hours and the cells were lysed with 100 µL of lysis buffer. 20 µL of lysate was used for SMN protein measurement by Mesoscale Discovery (MSD) assay developed by PharmOptima (Michigan). A standard curve prepared with SMN protein ranging from 1 µg/ml to 19.5pg/ml was used in each MSD plate to calculate the absolute SMN protein amount in each sample.

[1] = system: SMN2 Splicing D7 (SMN Δ7 transcript); experiment: SMN Quantitative Splicing Assay (qPCR); type: cell-based, human; conditions: 24 h, SMA patient fibroblasts (GM03813), 2.5 µM to 0.6 nM
Description: Spinal muscular atrophy (SMA) patient fibroblasts (GM03813, Coriell) were plated in 96-well plates at 50,000 cells/well. […] Treated cells were lysed and cDNA synthesized using the Fast Advanced Cells-to-Ct kit (Thermofisher A35378) according to the manufacturer’s instructions. 2 µL of each cDNA were used in qPCR reactions. […] Reactions were run in a Quant Studio 6 qPCR instrument with default settings.

| SMILES | EC50 (SMN2 Protein) | IC50 ([1]; Homo sapiens, Fibroblast) | IC50 [1] |
| --- | --- | --- | --- |
| CN(c1cnc(-c2cc3occc(=O)c3cc2O)nn1)[C@@H]1CC2COC[C@H](N2)[C@@H]1F [Compound 67] | 51 to 100 nM | 101 to 500 nM | – |
| CCn1cc(F)c2cc(-c3ncc(N(C)[C@H]4CC5COCC(N5)[C@H]4F)nn3)c(O)cc2c1=O (stereo partly shown) [Compound 221] | – | 501 to 10000 nM | – |
| CN(c1cnc(-c2cc3c(=O)n(C)cnc3cc2O)nn1)C1CC2CCC(N2)[C@H]1F (stereo partly shown) [Compound 139] | 0.01 to 15 nM | 16 to 50 nM | – |
| CN(c1cnc(-c2cc3c(F)cn(C)c(=O)c3cc2O)nn1)[C@H]1C[C@@H]2CC[C@@](C)(N2)[C@H]1F [Compound 187] | 0.01 to 15 nM | 0.01 to 15 nM | – |
| Cc1cc2cc(O)c(-c3ncc(N(C)[C@H]4CC5CCC(N5)[C@H]4F)nn3)cc2cn1 (stereo partly shown) [Compound 46] | 0.01 to 15 nM | 0.01 to 15 nM | – |
| Cc1coc2cc(-c3ncc(N(C)[C@@H]4CC5CCCC(N5)[C@@H]4F)nn3)c(O)cc2c1=O (stereo partly shown) [Compound 101] | 0.01 to 15 nM | 0.01 to 15 nM | – |
| CN(c1cnc(-c2cc3c(=O)ccoc3cc2O)nn1)[C@@H]1CC2CCCC(N2)[C@@H]1F (stereo partly shown) [Compound 109] | 501 to 10000 nM | 501 to 10000 nM | – |
| CN(c1cnc(-c2cc3cc[nH]c(=O)c3cc2O)nn1)[C@@H]1CC2CC[C@H](N2)[C@@H]1F [Compound 170] | 16 to 50 nM | 51 to 100 nM | – |
| Cc1nc2cc(-c3ncc(N(C)[C@H]4CC5CC[C@@H](N5)[C@H]4F)nn3)c(O)cc2c(=O)n1C [Compound 205] | 0.01 to 15 nM | 0.01 to 15 nM | – |
| CN(c1cnc(-c2cc3ncn(C(F)F)c(=O)c3cc2O)nn1)[C@@H]1C[C@H]2CCC(N2)[C@@H]1F [Compound 196] | 51 to 100 nM | 16 to 50 nM | – |
| CN(c1cnc(-c2cc3occc(=O)c3cc2O)nn1)[C@H]1C[C@]2(C)CCC[C@@](C)(N2)[C@H]1F [Compound 64] | 0.01 to 15 nM | 0.01 to 15 nM | – |
| Cc1cc(=O)c2cc(O)c(-c3ncc(N(C)C4CC5CCCC(N5)C4F)nn3)cc2o1 (stereo not shown) [Compound 128] | 0.01 to 15 nM | 16 to 50 nM | – |
| Cc1nc2cc(O)c(-c3ncc(N(C)[C@@H]4CC5CC[C@H](N5)[C@@H]4F)nn3)cc2nc1C [Compound 55] | 16 to 50 nM | 16 to 50 nM | – |
| [2H]C([2H])([2H])n1ncc2cc(-c3ncc(N(C)[C@H]4C[C@@H]5CCC(N5)[C@H]4F)nn3)c(O)cc2c1=O [Compound 181] | 0.01 to 15 nM | 0.01 to 15 nM | – |
| [2H]C([2H])([2H])C([2H])([2H])n1cc(F)c2cc(-c3ncc(N(C)[C@H]4CC5CCC(N5)[C@H]4F)nn3)c(O)cc2c1=O (stereo partly shown) [Compound 208] | 0.01 to 15 nM | 0.01 to 15 nM | – |
| Cc1ncc2cc(O)c(-c3ncc(N(C)[C@@H]4CC5CCC(N5)[C@@H]4F)nn3)cc2n1 (single isomer, unassigned) [Compound 39] | 51 to 100 nM | 101 to 500 nM | – |
| CN(c1cnc(-c2cc3ncn(C)c(=O)c3cc2O)nn1)C1CC2CC[C@@](C)(N2)[C@H]1F (stereo partly shown) [Compound 136] | 0.01 to 15 nM | 0.01 to 15 nM | – |
| CCn1c(C)c(F)c2cc(-c3ncc(N(C)[C@H]4C[C@@H]5CCC(N5)[C@H]4F)nn3)c(O)cc2c1=O [Compound 223] | 0.01 to 15 nM | 0.01 to 15 nM | – |
| CN(c1cnc(-c2cc3occc(=O)c3cc2O)nn1)[C@H]1C[C@]2(C)CC[C@@](C)(N2)[C@H]1F [Compound 62] | 0.01 to 15 nM | 0.01 to 15 nM | – |
| Cc1nc2cc(O)c(-c3ncc(N(C)[C@H]4C[C@]5(C)CC[C@@](C)(N5)[C@H]4F)nn3)cc2nc1C [Compound 87] | 0.01 to 15 nM | 0.01 to 15 nM | – |
| Cc1cnc2cc(-c3ncc(N(C)[C@@H]4CC5CCCC(N5)[C@@H]4F)nn3)c(O)cc2n1 (stereo partly shown) [Compound 105] | 16 to 50 nM | 101 to 500 nM | – |
| CN(c1cnc(-c2cc3c(F)cn(C)c(=O)c3cc2O)nn1)C1CC2CCCC(N2)[C@@H]1F (stereo partly shown) [Compound 138] | 0.01 to 15 nM | 16 to 50 nM | – |
| [2H]C([2H])([2H])n1cc(F)c2cc(-c3ncc(N(C)[C@@H]4CC5CC[C@H](N5)[C@@H]4F)nn3)c(O)cc2c1=O [Compound 192] | 0.01 to 15 nM | 0.01 to 15 nM | – |
| CC(C)n1cnc2cc(-c3ncc(N(C)C4CC5CCC(N5)[C@H]4F)nn3)c(O)cc2c1=O (stereo partly shown) [Compound 30] | 101 to 500 nM | 101 to 500 nM | – |
| CCn1c(C)nc2cc(-c3ncc(N(C)[C@H]4CC5CC(F)(F)C(C4)N5)nn3)c(O)cc2c1=O (stereo partly shown) [Compound 215] | 16 to 50 nM | 16 to 50 nM | – |
| CN(c1cnc(-c2cc3occc(=O)c3cc2O)nn1)[C@@H]1C[C@@]2(C)CCC[C@](C)(N2)[C@@H]1F [Compound 61] | 0.01 to 15 nM | 51 to 100 nM | – |
| Cc1ncc2cc(-c3ncc(N(C)[C@H]4C[C@@H]5CCC(N5)[C@H]4F)nn3)c(O)cc2n1 [Compound 72] | 51 to 100 nM | 51 to 100 nM | – |

| SMILES | EC50 (SMN2 Protein) | IC50 ([1]; Homo sapiens, Fibroblast) | IC50 [1] |
| --- | --- | --- | --- |
| Cc1nc2cc(O)c(-c3ncc(N(C)[C@H]4C[C@@H]5CCC(N5)[C@H]4F)nn3)cc2nc1C [Compound 56] | 16 to 50 nM | 0.01 to 15 nM | – |
| [2H]C([2H])([2H])N(c1cnc(-c2cc3ncn(C([2H])([2H])[2H])c(=O)c3cc2O)nn1)[C@@H]1CC2CC[C@H](N2)[C@@H]1F [Compound 176] | 0.01 to 15 nM | 16 to 50 nM | – |
| CN(c1cnc(-c2cc3c(F)cn(C)c(=O)c3cc2O)nn1)[C@@H]1CC2COCC(N2)[C@@H]1F (stereo partly shown) [Compound 219] | – | 16 to 50 nM | – |
| CN(c1cnc(-c2cc3ncn(C)c(=O)c3cc2O)nn1)[C@@H]1C[C@H]2CCCC(N2)[C@@H]1F [Compound 124] | 16 to 50 nM | 16 to 50 nM | – |
| CCc1coc2cc(-c3ncc(N(C)[C@@H]4C[C@H]5CC[C@H](N5)[C@@H]4F)nn3)c(O)cc2c1=O [Compound 93] | 16 to 50 nM | 16 to 50 nM | – |
| CN(c1cnc(-c2cc3c(F)cn(C)c(=O)c3cc2O)nn1)[C@@H]1C[C@@]2(C)CCC(N2)[C@@H]1F [Compound 37] | 0.01 to 15 nM | 0.01 to 15 nM | – |
| CN(c1cnc(-c2cc3cnn(C)c(=O)c3cc2O)nn1)[C@H]1C[C@]2(C)CCC(N2)[C@H]1F [Compound 185] | 0.01 to 15 nM | 0.01 to 15 nM | – |
| CN(c1cnc(-c2cc3nccnc3cc2O)nn1)[C@@H]1CC2CC[C@H](N2)[C@@H]1F [Compound 19] | 101 to 500 nM | 101 to 500 nM | – |
| [2H]C([2H])([2H])N(c1cnc(-c2cc3ccn(C([2H])([2H])[2H])c(=O)c3cc2O)nn1)[C@@H]1CC2CC[C@H](N2)[C@@H]1F [Compound 168] | 0.01 to 15 nM | 51 to 100 nM | – |
| CN(c1cnc(-c2cc3cc[nH]c(=O)c3cc2O)nn1)[C@H]1C[C@@H]2CCC(N2)[C@H]1F [Compound 169] | 0.01 to 15 nM | 16 to 50 nM | – |
| CN(c1cnc(-c2cc3nccnc3cc2O)nn1)[C@@H]1CC2CC[C@H](N2)[C@@H]1F [Compound 57] | 16 to 50 nM | – | 101 to 500 nM |
| CN(c1cnc(-c2cc3c(F)cn(C)c(=O)c3cc2O)nn1)[C@@H]1CC2CC[C@H](N2)[C@@H]1F [Compound 65] | 0.01 to 15 nM | 16 to 50 nM | – |
| CN(c1cnc(-c2cc3ncn(C)c(=O)c3cc2O)nn1)C1CC2COCC(C1)N2 (stereo not shown) [Compound 148] | 0.01 to 15 nM | 0.01 to 15 nM | – |
| Cc1cc(=O)c2cc(O)c(-c3ncc(N(C)[C@H]4CC5CC[C@@H](N5)[C@H]4F)nn3)cc2o1 (single isomer, unassigned) [Compound 6B] | 0.01 to 15 nM | 0.01 to 15 nM | – |
| CN(c1cnc(-c2cc3ccn(C)c(=O)c3cc2O)nn1)[C@H]1C[C@]2(C)CCC(N2)[C@H]1F [Compound 173] | 16 to 50 nM | 16 to 50 nM | – |
| Cc1coc2cc(-c3ncc(N(C)[C@H]4CC5CCCC(N5)[C@H]4F)nn3)c(O)cc2c1=O (stereo partly shown) [Compound 102] | 0.01 to 15 nM | 0.01 to 15 nM | – |
| CN(c1cnc(-c2cc3cnn(C)c(=O)c3cc2O)nn1)C1CC2CCC(C)(N2)C1F (stereo not shown) [Compound 184] | 0.01 to 15 nM | 0.01 to 15 nM | – |
| Cc1c(F)c2cc(-c3ncc(N(C)[C@H]4C[C@@H]5CC[C@@H](N5)[C@H]4F)nn3)c(O)cc2c(=O)n1C [Compound 204] | 0.01 to 15 nM | 0.01 to 15 nM | – |
| CN(c1cnc(-c2cc3ncn(C)c(=O)c3cc2O)nn1)C1C[C@@]2(C)CCC(N2)[C@@H]1F (stereo partly shown) [Compound 35] | 0.01 to 15 nM | 0.01 to 15 nM | – |
| Cc1cc2cc(-c3ncc(N(C)[C@@H]4CC5CCC(N5)[C@@H]4F)nn3)c(O)cc2cn1 (stereo partly shown) [Compound 43] | 16 to 50 nM | 51 to 100 nM | – |
| CN(c1cnc(-c2cc3nccnc3cc2O)nn1)C1CC2CCC(N2)C1F (stereo not shown) [Compound 20] | 16 to 50 nM | 16 to 50 nM | – |
| [2H]C([2H])([2H])n1nc(F)c2cc(-c3ncc(N(C)[C@H]4C[C@@H]5CCC(N5)[C@H]4F)nn3)c(O)cc2c1=O [Compound 191] | 0.01 to 15 nM | 0.01 to 15 nM | – |
| Cc1cnc2cc(O)c(-c3ncc(N(C)[C@@H]4CC5CCC(N5)[C@@H]4F)nn3)cc2n1 (stereo partly shown) [Compound 51] | 51 to 100 nM | 51 to 100 nM | – |
| CN(c1cnc(-c2cc3ncn(C)c(=O)c3cc2O)nn1)[C@@H]1CC2CCC(N2)[C@@H]1F (single isomer, unassigned) [Compound 3A] | 16 to 50 nM | 16 to 50 nM | – |
| CCn1cc(F)c2cc(-c3ncc(N(C)[C@@H]4CC5COCC(N5)[C@@H]4F)nn3)c(O)cc2c1=O (stereo partly shown) [Compound 222] | – | 101 to 500 nM | – |
| CN(c1cnc(-c2cc3c(F)cn(C)c(=O)c3cc2O)nn1)[C@H]1CC2COCC(N2)[C@H]1F (stereo partly shown) [Compound 218] | – | 51 to 100 nM | – |
| CNC(=O)c1ccc2cc(-c3ncc(N(C)[C@@H]4C[C@H]5CC[C@@H](C4)N5)nn3)c(O)cc2n1 [Compound 9] | 0.01 to 15 nM | – | – |

From US20230331718A1, “COMPOSITIONS FOR MODULATING SPLICING” (Skyhawk Therapeutics, Inc., priority 2020, published 2023)
